We go through 1 molecule from patent US8337835B2, “Use of an endogenous ligand for peroxisome proliferator activated receptor alpha to treat liver disorders” (priority 2009, dated 2012).

SMILES strings stand for the structures.

Assay [1] deals with PPARα-dependent genes (ACO and CPT-1) after CEPT1 knockdown. In words: Rescue of ACO and CPT-1 expression in Hepa 1-6 cells treated with CEPT1 siRNA. The assay is classed as cell-based, mouse. As to conditions: 72 h CEPT1 siRNA, then 50 μM for 24 h. As for the experimental part:
The C57BL/6 mouse hepatoma cell line Hepa 1-6 (ATCC, CRL-1830) was expanded in DMEM with 10% fetal bovine serum. For experiments, cells were cultured to 50-60% confluence, washed twice with PBS, and the medium was changed to serum-free DMEM supplemented with the various types and concentrations of phosphatidylcholine (sonicated to homogeneity in PBS/1% ethanol/4% fatty acid-free BSA), Wy14,643 (dissolved in 80% PBS/20% DMSO), or vehicle-only solutions. 24 h later, cells were washed, RNA prepared, and ACO and CPT-1 expression levels were determined by quantitative RT-PCR (see FIG. 6). For siRNA experiments, 50-60% confluent cells were treated with siRNAs or their scrambled controls (all diluted in PBS) for 72 h. […]
(§1) Stealth™ siRNA oligonucleotides were used to inhibit the gene expression of mouse ChPT1 ([…]) (SEQ ID NO: 1) and CEPT1 ([…]) (SEQ ID NO: 2) were from Invitrogen (Carlsbad, Calif.). […] Expression of ACO and CPT-1 was also assessed 24 h after addition of 50 μM 16:0/18:1-GPC in a subset of Hepa 1-6 cells previously treated with CEPT1 siRNA. mRNA levels are normalized to control L32 ribosomal mRNA. […] FIGS. 6F-H show the binding of various peptide motifs to the purified PPARα (FIG. 6F), PPARδ (FIG. 6G), and PPARγ (FIG. 6H) LBD in the presence of 5 μM of the corresponding PPAR agonist or 16:0/18:1-GPC as measured by AlphaScreen assays. […]

Assay [2] deals with T1, PPARα ligand binding domain (LBD) (Homo sapiens, UniProt Q07869).
T1 construct: 6xHis; made in house
T1 sequence (Q07869 239-466 limits assumed): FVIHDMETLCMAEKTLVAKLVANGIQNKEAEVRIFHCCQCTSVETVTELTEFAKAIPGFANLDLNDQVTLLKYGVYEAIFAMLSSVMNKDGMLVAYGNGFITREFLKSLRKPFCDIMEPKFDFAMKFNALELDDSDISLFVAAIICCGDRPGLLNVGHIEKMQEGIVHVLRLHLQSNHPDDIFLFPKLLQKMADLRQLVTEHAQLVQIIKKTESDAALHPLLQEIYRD
Description: ALPHASCREEN binding assay, PPARα ligand binding domain. The protocol:
Binding of 16:0/18:1-GPC and known agonists to the ligand binding domain (LBD) of PPARα in the presence of various peptide motifs was determined by ALPHASCREEN™ assay (Proc Natl Acad Sci USA 105, pp. 5034-5039, 2008). Experiments used 100 nM receptor LBD, purified as 6× His tag fusion proteins (Mol Cell 17, pp. 491-502, 2005), and 20 nM of N-terminal biotinylated CBP1 peptide or other coactivator peptides in the presence of 5 μg/ml donor and acceptor beads in 50 mM MOPS (pH 7.4), 100 mM NaCl, and 0.1 mg/ml BSA for 90 min at 25° C. Signals were generated in the absence or the presence of ligand. Identical experiments were performed using the PPARδ and PPARγ LBDs.
as §1
Background: Alpha assays give light when donor and acceptor beads are brought close together.

Assay [3] relates to PPARα target gene (ACO and CPT-1) expression. Description: PPARα target gene (ACO and CPT-1) expression by quantitative RT-PCR in Hepa 1-6 cells. The assay is classed as cell-based. As to conditions: Hepa 1-6 mouse hepatoma cells, 24 h, serum-free DMEM. As for the experimental part: RT-PCR gene expression analysis and binding assays were employed to address this objective. Wy14,643, 16:0/18:1-GPC, and 18:1/16:0-GPC on PPARα target gene (ACO and CPT-1) expression was measured by quantitative RT-PCR in Hepa 1-6 cells treated for 24 h as in FIG. 6A. Results are mean±SEM of 9 separate experiments. *, P<0.05 compared to control (Ctrl, 80% PBS/20% DMSO).
The C57BL/6 mouse hepatoma cell line Hepa 1-6 (ATCC, CRL-1830) was expanded in DMEM with 10% fetal bovine serum. For experiments, cells were cultured to 50-60% confluence, washed twice with PBS, and the medium was changed to serum-free DMEM supplemented with the various types and concentrations of phosphatidylcholine (sonicated to homogeneity in PBS/1% ethanol/4% fatty acid-free BSA), Wy14,643 (dissolved in 80% PBS/20% DMSO), or vehicle-only solutions. 24 h later, cells were washed, RNA prepared, and ACO and CPT-1 expression levels were determined by quantitative RT-PCR (see FIG. 6). For siRNA experiments, 50-60% confluent cells were treated with siRNAs or their scrambled controls (all diluted in PBS) for 72 h. Following the 72 h siRNA treatment, another set of cells received 16:0/18:1-GPC (using a concentration based on dose-response experiments) for an additional 24 h. Stealth™ siRNA oligonucleotides were used to inhibit the gene expression of mouse ChPT1 ([…]) (SEQ ID NO: 1) and CEPT1 ([…]) (SEQ ID NO: 2) were from Invitrogen (Carlsbad, Calif.).
Total RNA was extracted from Hepa 1-6 cells and liver using Trizol (Invitrogen) and treated with DNase I (RNase-free, Roche Molecular Biochemicals). Reverse transcription to cDNA and real-time quantitative PCR were performed using previously published procedures and primer-probe sequences for ACO and CPT-1 (Chakravarthy et al., 2005). […] Relative mRNA levels were calculated using both the comparative CT and standard curve methods normalized to ribosomal protein L32, an invariant internal control. […]

`CCCCCCCC/C=C\CCCCCCCC(=O)O[C@H](COC(=O)CCCCCCCCCCCCCCC)COP(=O)([O-])OCC[N+](C)(C)C` [16:0/18:1-GPC, 1-palmitoyl-2-oleoyl-sn-glycerol-3-phosphocholine]: the “rescue of decreased PPARα-dependent genes (ACO, CPT-1) after CEPT1 knockdown” value in assay [1] is listed as “rescued”. Also, the “binding affinity to PPARα compared with Wy14,643” value in assay [2] was “binds with sufficient affinity to PPARα comparable to Wy14,643”. Also, the “expression of PPARα-dependent genes ACO and CPT-I” value in assay [3] is “induces PPARα-dependent gene expression”; in assay [3] (listed as 1-palmitoyl-2-oleoyl-sn-glycerol-3-phosphocholine), “increased expression of both ACO and CPT-I to a similar degree as equimolar amounts of the known PPARα activator Wy14,643”.
